# According to US11691992B2 (Anacor Pharmaceuticals, Inc., priority 2017, dated 2023):
# Test system: STIB719/ILRAD560 T. vivax (drug sensitive) strain
# Experiment: Ex vivo Alamar Blue 48 h drug sensitivity assay for T. vivax
# Format: cell-based
# Conditions: Trypanosoma vivax, ex vivo bloodstream forms from mouse, 45 hrs + 3 hrs resazurin, read-out: IC50: I Hypoxanthine Incorporation T. vivax STIB 719/ILRA D 560, 2 d
# Protocol: Example 109. Ex Vivo Alamar Blue 48 h Drug Sensitivity Assay for T. vivax
# […] Test compounds were prepared as 10 mg/mL DMSO stocks for each assay run. Compounds were assayed in at least three separate, independent test runs and an 11-point dilution curve was used to determine the IC50 values. Bloodstream form trypanosomes were propagated and harvested from a highly parasitemic mouse (via cardiac puncture) and were incubated with test compounds for 45 hrs at 37° C. in a humidified atmosphere containing 5% CO2, supported in HMI media containing 20% bovine serum. […] Plates were then read using a fluorescent plate reader (Spectramax, Gemini XS, Bucher Biotec, Basel, Switzerland) using an excitation wavelength of 536 nm and an emission wavelength of 588 nm. Data points were averaged to generate sigmoidal dose-response curves and IC50 values were determined using Softmax Pro 5.2 software.
compound,measurement,value
"O=C(Nc1ccc2c(c1)B(O)OC2)c1cn(-c2ccc(F)cc2)nn1 [Example 60, 1-(4-Fluorophenyl)-N-(1-hydroxy-1,3-dihydrobenzo[c][1,2]oxaborol-6-yl)-1H-1,2,3-triazole-4-carboxamide]",IC50,201 to 500 nM
